From patent US8192962B2, “Processes for detecting toxic substances” (Daikin Industries, Ltd., priority 2001, dated 2012)

Tested on: Genes belonging to other category
Test: DNA chip mRNA expression in yeast, genes belonging to other category (Table 9)
Type: cell-based, Saccharomyces cerevisiae S288C
Method in brief: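 Ratios compare mRNA levels in stressed and control S. cerevisiae. Each toxicant was applied for two hours to log-phase cultures at 25° C. at a sub-lethal, growth-inhibiting level; fluorescent cDNA (Cy3- or Cy5-dUTP) was hybridized to a genome-wide yeast chip for over 12 h at 65° C.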

SMILES: COc1cc(CNC(=O)CCCCC=CC(C)C)ccc1O [(12), 8-methyl-N-vanillyl-6-nonenamide]
- The level of expressed mRNA in the presence of chemical substance/The level of expressed mRNA in the absence of chemical substance (yeast gene YAR010C): 1.0
- The level of expressed mRNA in the presence of chemical substance/The level of expressed mRNA in the absence of chemical substance (yeast gene YBL005W-A): 1.6
- The level of expressed mRNA in the presence of chemical substance/The level of expressed mRNA in the absence of chemical substance (yeast gene YBL041W): 1.6
- The level of expressed mRNA in the presence of chemical substance/The level of expressed mRNA in the absence of chemical substance (yeast gene YBL043W): 0.9
- The level of expressed mRNA in the presence of chemical substance/The level of expressed mRNA in the absence of chemical substance (yeast gene YBL078C): 3.1
- The level of expressed mRNA in the presence of chemical substance/The level of expressed mRNA in the absence of chemical substance (yeast gene YBL102W): 0.9
- The level of expressed mRNA in the presence of chemical substance/The level of expressed mRNA in the absence of chemical substance (yeast gene YBR212W): 0.9
- The level of expressed mRNA in the presence of chemical substance/The level of expressed mRNA in the absence of chemical substance (yeast gene YBR214W): 1.2
- The level of expressed mRNA in the presence of chemical substance/The level of expressed mRNA in the absence of chemical substance (yeast gene YCL020W): 1.5
- The level of expressed mRNA in the presence of chemical substance/The level of expressed mRNA in the absence of chemical substance (yeast gene YCL027W): 0.8
- The level of expressed mRNA in the presence of chemical substance/The level of expressed mRNA in the absence of chemical substance (yeast gene YCL067C): 1.0
- The level of expressed mRNA in the presence of chemical substance/The level of expressed mRNA in the absence of chemical substance (yeast gene YCR004C): 0.8
- The level of expressed mRNA in the presence of chemical substance/The level of expressed mRNA in the absence of chemical substance (yeast gene YCR067C): 0.9
- The level of expressed mRNA in the presence of chemical substance/The level of expressed mRNA in the absence of chemical substance (yeast gene YCR071C): 1.1
- The level of expressed mRNA in the presence of chemical substance/The level of expressed mRNA in the absence of chemical substance (yeast gene YCR088W): 1.3
- The level of expressed mRNA in the presence of chemical substance/The level of expressed mRNA in the absence of chemical substance (yeast gene YCR096C): 1.0
- The level of expressed mRNA in the presence of chemical substance/The level of expressed mRNA in the absence of chemical substance (yeast gene YDL008W): 1.2
- The level of expressed mRNA in the presence of chemical substance/The level of expressed mRNA in the absence of chemical substance (yeast gene YDL119C): 0.9
- The level of expressed mRNA in the presence of chemical substance/The level of expressed mRNA in the absence of chemical substance (yeast gene YDL197C): 0.8
- The level of expressed mRNA in the presence of chemical substance/The level of expressed mRNA in the absence of chemical substance (yeast gene YDL238C): 0.9
- The level of expressed mRNA in the presence of chemical substance/The level of expressed mRNA in the absence of chemical substance (yeast gene YDR055W): 1.4
- The level of expressed mRNA in the presence of chemical substance/The level of expressed mRNA in the absence of chemical substance (yeast gene YDR084C): 0.7
- The level of expressed mRNA in the presence of chemical substance/The level of expressed mRNA in the absence of chemical substance (yeast gene YDR085C): 1.6
- The level of expressed mRNA in the presence of chemical substance/The level of expressed mRNA in the absence of chemical substance (yeast gene YDR104C): 1.1
- The level of expressed mRNA in the presence of chemical substance/The level of expressed mRNA in the absence of chemical substance (yeast gene YDR115W): 0.9
- The level of expressed mRNA in the presence of chemical substance/The level of expressed mRNA in the absence of chemical substance (yeast gene YDR169C): 0.9
- The level of expressed mRNA in the presence of chemical substance/The level of expressed mRNA in the absence of chemical substance (yeast gene YDR188W): 0.9
- The level of expressed mRNA in the presence of chemical substance/The level of expressed mRNA in the absence of chemical substance (yeast gene YDR212W): 0.8
- The level of expressed mRNA in the presence of chemical substance/The level of expressed mRNA in the absence of chemical substance (yeast gene YDR259C): 1.0
- The level of expressed mRNA in the presence of chemical substance/The level of expressed mRNA in the absence of chemical substance (yeast gene YDR315C): 0.6
- The level of expressed mRNA in the presence of chemical substance/The level of expressed mRNA in the absence of chemical substance (yeast gene YDR329C): 0.8
- The level of expressed mRNA in the presence of chemical substance/The level of expressed mRNA in the absence of chemical substance (yeast gene YDR358W): 1.1
- The level of expressed mRNA in the presence of chemical substance/The level of expressed mRNA in the absence of chemical substance (yeast gene YDR378C): 0.9
- The level of expressed mRNA in the presence of chemical substance/The level of expressed mRNA in the absence of chemical substance (yeast gene YDR388W): 0.8
- The level of expressed mRNA in the presence of chemical substance/The level of expressed mRNA in the absence of chemical substance (yeast gene YDR403W): 1.0
- The level of expressed mRNA in the presence of chemical substance/The level of expressed mRNA in the absence of chemical substance (yeast gene YDR432W): 0.7
- The level of expressed mRNA in the presence of chemical substance/The level of expressed mRNA in the absence of chemical substance (yeast gene YDR481C): 0.9
- The level of expressed mRNA in the presence of chemical substance/The level of expressed mRNA in the absence of chemical substance (yeast gene YDR510W): 1.4
- The level of expressed mRNA in the presence of chemical substance/The level of expressed mRNA in the absence of chemical substance (yeast gene YDR515W): 0.8
- The level of expressed mRNA in the presence of chemical substance/The level of expressed mRNA in the absence of chemical substance (yeast gene YEL005C): 0.8
- The level of expressed mRNA in the presence of chemical substance/The level of expressed mRNA in the absence of chemical substance (yeast gene YEL042W): 1.0
- The level of expressed mRNA in the presence of chemical substance/The level of expressed mRNA in the absence of chemical substance (yeast gene YEL066W): 0.8
- The level of expressed mRNA in the presence of chemical substance/The level of expressed mRNA in the absence of chemical substance (yeast gene YER021W): 1.0
- The level of expressed mRNA in the presence of chemical substance/The level of expressed mRNA in the absence of chemical substance (yeast gene YER039C): 0.9
- The level of expressed mRNA in the presence of chemical substance/The level of expressed mRNA in the absence of chemical substance (yeast gene YER048C): 0.8
- The level of expressed mRNA in the presence of chemical substance/The level of expressed mRNA in the absence of chemical substance (yeast gene YER100W): 0.8
- The level of expressed mRNA in the presence of chemical substance/The level of expressed mRNA in the absence of chemical substance (yeast gene YER107C): 0.7
- The level of expressed mRNA in the presence of chemical substance/The level of expressed mRNA in the absence of chemical substance (yeast gene YER130C): 1.0
- The level of expressed mRNA in the presence of chemical substance/The level of expressed mRNA in the absence of chemical substance (yeast gene YFL022C): 0.6
- The level of expressed mRNA in the presence of chemical substance/The level of expressed mRNA in the absence of chemical substance (yeast gene YFL028C): 1.1
- The level of expressed mRNA in the presence of chemical substance/The level of expressed mRNA in the absence of chemical substance (yeast gene YFL043C): 0.9
- The level of expressed mRNA in the presence of chemical substance/The level of expressed mRNA in the absence of chemical substance (yeast gene YGL011C): 1.0
- The level of expressed mRNA in the presence of chemical substance/The level of expressed mRNA in the absence of chemical substance (yeast gene YGL094C): 0.8
- The level of expressed mRNA in the presence of chemical substance/The level of expressed mRNA in the absence of chemical substance (yeast gene YGL150C): 0.8
- The level of expressed mRNA in the presence of chemical substance/The level of expressed mRNA in the absence of chemical substance (yeast gene YGL158W): 1.3
- The level of expressed mRNA in the presence of chemical substance/The level of expressed mRNA in the absence of chemical substance (yeast gene YGL207W): 0.7
- The level of expressed mRNA in the presence of chemical substance/The level of expressed mRNA in the absence of chemical substance (yeast gene YGL229C): 1.1
- The level of expressed mRNA in the presence of chemical substance/The level of expressed mRNA in the absence of chemical substance (yeast gene YGR023W): 0.9
- The level of expressed mRNA in the presence of chemical substance/The level of expressed mRNA in the absence of chemical substance (yeast gene YGR036C): 1.0
- The level of expressed mRNA in the presence of chemical substance/The level of expressed mRNA in the absence of chemical substance (yeast gene YGR136W): 1.2
- The level of expressed mRNA in the presence of chemical substance/The level of expressed mRNA in the absence of chemical substance (yeast gene YGR189C): 1.3
- The level of expressed mRNA in the presence of chemical substance/The level of expressed mRNA in the absence of chemical substance (yeast gene YGR201C): 1.9
- The level of expressed mRNA in the presence of chemical substance/The level of expressed mRNA in the absence of chemical substance (yeast gene YGR213C): 10.6
- The level of expressed mRNA in the presence of chemical substance/The level of expressed mRNA in the absence of chemical substance (yeast gene YGR257C): 0.9
- The level of expressed mRNA in the presence of chemical substance/The level of expressed mRNA in the absence of chemical substance (yeast gene YGR270W): 0.8
- The level of expressed mRNA in the presence of chemical substance/The level of expressed mRNA in the absence of chemical substance (yeast gene YGR279C): 0.7
- The level of expressed mRNA in the presence of chemical substance/The level of expressed mRNA in the absence of chemical substance (yeast gene YHR004C): 0.9
- The level of expressed mRNA in the presence of chemical substance/The level of expressed mRNA in the absence of chemical substance (yeast gene YHR027C): 1.0
- The level of expressed mRNA in the presence of chemical substance/The level of expressed mRNA in the absence of chemical substance (yeast gene YHR071W): 0.8
- The level of expressed mRNA in the presence of chemical substance/The level of expressed mRNA in the absence of chemical substance (yeast gene YHR139C): 1.6
- The level of expressed mRNA in the presence of chemical substance/The level of expressed mRNA in the absence of chemical substance (yeast gene YHR142W): 1.3
- The level of expressed mRNA in the presence of chemical substance/The level of expressed mRNA in the absence of chemical substance (yeast gene YHR160C): 0.8
- The level of expressed mRNA in the presence of chemical substance/The level of expressed mRNA in the absence of chemical substance (yeast gene YHR161C): 1.0
- The level of expressed mRNA in the presence of chemical substance/The level of expressed mRNA in the absence of chemical substance (yeast gene YHR171W): 0.8
- The level of expressed mRNA in the presence of chemical substance/The level of expressed mRNA in the absence of chemical substance (yeast gene YHR195W): 0.9
- The level of expressed mRNA in the presence of chemical substance/The level of expressed mRNA in the absence of chemical substance (yeast gene YIL034C): 1.0
- The level of expressed mRNA in the presence of chemical substance/The level of expressed mRNA in the absence of chemical substance (yeast gene YIL062C): 0.8
- The level of expressed mRNA in the presence of chemical substance/The level of expressed mRNA in the absence of chemical substance (yeast gene YIL075C): 0.8
- The level of expressed mRNA in the presence of chemical substance/The level of expressed mRNA in the absence of chemical substance (yeast gene YIL123W): 0.8
- The level of expressed mRNA in the presence of chemical substance/The level of expressed mRNA in the absence of chemical substance (yeast gene YIL140W): 1.0
- The level of expressed mRNA in the presence of chemical substance/The level of expressed mRNA in the absence of chemical substance (yeast gene YJL073W): 1.0
- The level of expressed mRNA in the presence of chemical substance/The level of expressed mRNA in the absence of chemical substance (yeast gene YJL089W): 1.2
- The level of expressed mRNA in the presence of chemical substance/The level of expressed mRNA in the absence of chemical substance (yeast gene YJL113W): 0.7
